How the values were obtained:
[1] = target: Human immunodeficiency virus type 1 reverse transcriptase (Human immunodeficiency virus 1, UniProt Q72547); test: Inhibition of HIV1 reverse transcriptase assessed as reduction in biotin-dUTP incorporation into template incubated for 1 hr by ELISA
[2] = Selectivity index, ratio of CC50 for human MT4 cells to EC50 for antiviral activity against HIV 3B infected in human MT4 cells; type: toxicity, cell-based; details: read-out: Ratio CC50/EC50
[3] = Selectivity index, ratio of CC50 for human MT4 cells to EC50 for antiviral activity against HIV HIV1 RES056 harboring K103N/Y181C double mutant infected in human MT4 cells; type: toxicity, cell-based; details: read-out: Ratio CC50/EC50
[4] = tested on: Human immunodeficiency virus 1; test: Antiviral activity against HIV1 harboring Y181C mutant infected in human MT4 cells assessed as reduction in virus-induced cytopathic effect by MTT assay; type: functional, organism-based; details: Human immunodeficiency virus 1, MT4
[5] = tested on: Human immunodeficiency virus 1; test: Antiviral activity against HIV1 harboring F227L/V106A mutant infected in human MT4 cells assessed as reduction in virus-induced cytopathic effect by MTT assay; type: functional, organism-based; details: Human immunodeficiency virus 1, MT4
[6] = tested on: Human immunodeficiency virus 1; test: Antiviral activity against HIV1 harboring E138K mutant infected in human MT4 cells assessed as reduction in virus-induced cytopathic effect by MTT assay; type: functional, organism-based; details: Human immunodeficiency virus 1, MT4
[7] = tested on: Human immunodeficiency virus 1; test: Antiviral activity against HIV1 harboring Y188L mutant infected in human MT4 cells assessed as reduction in virus-induced cytopathic effect by MTT assay; type: functional, organism-based; details: Human immunodeficiency virus 1, MT4
[8] = tested on: Human immunodeficiency virus 1; test: Antiviral activity against HIV1 harboring K103N mutant infected in human MT4 cells assessed as reduction in virus-induced cytopathic effect by MTT assay; type: functional, organism-based; details: Human immunodeficiency virus 1, MT4
[9] = tested on: Human immunodeficiency virus 1; test: Antiviral activity against HIV1 harboring L100I mutant infected in human MT4 cells assessed as reduction in virus-induced cytopathic effect by MTT assay; type: functional, organism-based; details: Human immunodeficiency virus 1, MT4
[10] = tested on: Human immunodeficiency virus 1; test: Antiviral activity against HIV1 3B infected in human MT4 cells assessed as reduction in virus-induced cytopathic effect by MTT assay; type: functional, organism-based; details: Human immunodeficiency virus 1, 3B
[11] = (§1) Cytotoxicity against human MT4 cells assessed as reduction in cell viability by MTT assay; type: cell-based; details: MT4 cells
[12] = tested on: Human immunodeficiency virus 1; test: Antiviral activity against HIV1 RES056 harboring K103N/Y181C double mutant infected in human MT4 cells assessed as reduction in virus-induced cytopathic effect by MTT assay; type: functional, organism-based
[13] = tested on: Human immunodeficiency virus 1; test: Potency index, ratio of etravirine EC50 to test compound EC50 for antiviral activity against HIV1 3B infected in human MT4 cells assessed as reduction in virus-induced cytopathic effect by MTT assay; type: functional
MT4 = test: as §1; type: cell-based; details: mt4
[14] = tested on: Human immunodeficiency virus 1; test: Potency index, ratio of etravirine EC50 to test compound EC50 for antiviral activity against HIV1 harboring K103N mutant infected in human MT4 cells assessed as reduction in virus-induced cytopathic effect by MTT assay; type: functional
[15] = Human immunodeficiency virus 1, RES056, MT4, read-out: EC50

Structure (SMILES)	IC50 [1]	selectivity ratio [2]	selectivity ratio [3]	EC50 [4]	EC50 [5]	EC50 [6]	EC50 [7]	EC50 [8]	EC50 [9]	EC50 ([10]; read-out: EC50)	EC50 ([10]; read-out: pEC50 (converted))	CC50 [11]	EC50 [12, 15]	Ratio EC50 [13]	CC50 (MT4)	EC50 ([12]; mt4)	Ratio EC50 [14]
C=CC(=O)N1CCN(Cc2ccc(Nc3nccc(Oc4c(C)cc(/C=C/C#N)cc4C)n3)cc2)CC1	71 nM	909	< 1	84 nM	870 nM	41 nM	> 5.21 µM	10 nM	34 nM	5.7 nM	5.75 nM	5.21 µM	> 5.21 µM				
Cc1cc(C#N)cc(C)c1Oc1ccnc(Nc2ccc(CN3CCCN(S(C)(=O)=O)CC3)cc2)n1		100	< 1							79 nM		7.85 µM	> 7.85 µM				
Cc1cc(/C=C/C#N)cc(C)c1Oc1ccnc(Nc2ccc(CN3CCSCC3)cc2)n1	62 nM	3160	4	99 nM	280 nM	25 nM	4.28 µM	4.4 nM	24 nM	4.7 nM	4.68 nM	14.9 µM	3.56 µM				
Cc1cc(/C=C/C#N)cc(C)c1Oc1ccnc(Nc2ccc(CN3CC[S+]([O-])CC3)cc2)n1	51 nM	9860	9	67 nM	350 nM	9.8 nM	5.2 µM	3.4 nM	20 nM	2.4 nM	2.4 nM	23.4 µM	2.68 µM	2			
C=CC(=O)N1CCN(Cc2ccc(Nc3nccc(Oc4c(C)cc(C#N)cc4C)n3)cc2)CC1	160 nM	134	< 1							56 nM	56.2 nM	7.58 µM	> 7.58 µM				
Cc1cc(/C=C/C#N)cc(C)c1Oc1ccnc(Nc2ccc(CN3CCCN(S(C)(=O)=O)CC3)cc2)n1		644	< 1							27 nM		17.4 µM	> 17.4 µM				
Cc1cc(C#N)cc(C)c1Oc1ccnc(Nc2ccc(CN3CCSCC3)cc2)n1		847	< 1							28 nM		24.1 µM	> 24.1 µM				
CCS(=O)(=O)N1CCN(Cc2ccc(Nc3nccc(Oc4c(C)cc(/C=C/C#N)cc4C)n3)cc2)CC1	52 nM	810	5	46 nM	200 nM	17 nM	1.28 µM	4.9 nM	15 nM	5.7 nM	5.75 nM	4.6 µM	0.98 µM				
Cc1cc(C#N)cc(C)c1Oc1ccnc(Nc2ccc(CN3CCCN(S(=O)(=O)C4CC4)CC3)cc2)n1	200 nM									100 nM	100 nM				Not Active	Not Active	
Cc1cc(/C=C/C#N)cc(C)c1Oc1ccnc(Nc2ccc(CN3CCCN(S(=O)(=O)N(C)C)CC3)cc2)n1	94 nM	182	< 1							21 nM	20.9 nM	3.9 µM	> 3.9 µM				
Cc1cc(/C=C/C#N)cc(C)c1Oc1ccnc(Nc2ccc(CN3CCN(S(=O)(=O)C(C)C)CC3)cc2)n1		685	< 1	69 nM	230 nM	36 nM	> 3.81 µM	8.5 nM	25 nM	5.6 nM		3.81 µM	> 3.81 µM				
Cc1cc(C#N)cc(C)c1Oc1ccnc(Nc2ccc(CN3CCN(S(=O)(=O)C(C)C)CC3)cc2)n1	73 nM	152	< 1							30 nM	30.2 nM	4.54 µM	> 4.54 µM				
Cc1cc(C#N)cc(C)c1Oc1ccnc(Nc2ccc(CN3CCN(S(=O)(=O)N(C)C)CC3)cc2)n1		93	< 1							48 nM		4.46 µM	> 4.46 µM				
CCS(=O)(=O)N1CCN(Cc2ccc(Nc3nccc(Oc4c(C)cc(C#N)cc4C)n3)cc2)CC1		310	< 1							17 nM		5.24 µM	> 5.24 µM				
Cc1cc(C#N)cc(C)c1Oc1ccnc(Nc2ccc(CN3CC[S+]([O-])CC3)cc2)n1		3250	< 1							17 nM		54.7 µM	> 54.7 µM				
Cc1cc(C#N)cc(C)c1Oc1ccnc(Nc2ccc(CN3CCS(=O)(=O)CC3)cc2)n1	78 nM	3850	< 1							14 nM	14.1 nM	53.2 µM	> 53.2 µM				
Cc1cc(C#N)cc(C)c1Oc1ccnc(Nc2ccc(CN3CCCN(S(=O)(=O)N(C)C)CC3)cc2)n1		26	< 1							160 nM		4.19 µM	> 4.19 µM				
Cc1cc(/C=C/C#N)cc(C)c1Oc1ccnc(Nc2ccc(CN3CCCN(S(=O)(=O)C(C)C)CC3)cc2)n1		244	< 1							19 nM		4.64 µM	> 4.64 µM				
Cc1cc(/C=C/C#N)cc(C)c1Oc1ccnc(Nc2ccc(CN3CCN(S(=O)(=O)N(C)C)CC3)cc2)n1		677	< 1	92 nM	> 3070 nM	34 nM	> 3.07 µM	11 nM	29 nM	4.5 nM		3.07 µM	> 3.07 µM				
Cc1cc(/C=C/C#N)cc(C)c1Oc1ccnc(Nc2ccc(CN3CCS(=O)(=O)CC3)cc2)n1	34 nM	8640	17	33 nM	91 nM	7.5 nM	3.09 µM	1.9 nM	11 nM	2.1 nM	2.09 nM	18.5 µM	1.08 µM	2			1.7
Cc1cc(C#N)cc(C)c1Oc1ccnc(Nc2ccc(CN3CCN(S(=O)(=O)C4CC4)CC3)cc2)n1		174	< 1							25 nM		4.43 µM	> 4.43 µM				
Cc1cc(/C=C/C#N)cc(C)c1Oc1ccnc(Nc2ccc(CN3CCN(S(=O)(=O)C4CC4)CC3)cc2)n1		717	< 1	64 nM	360 nM	31 nM	> 4.35 µM	6.8 nM	17 nM	6.1 nM		4.35 µM	> 4.35 µM				
O=C1Nc2ccc(Cl)cc2[C@@](C#CC2CC2)(C(F)(F)F)O1 [EFAVIRENZ]				5 nM			0.26 µM			2.8 nM	2.82 nM	> 6.34 µM	0.34 µM				
Cc1cc(C#N)cc(C)c1Oc1nc(Nc2ccc(C#N)cc2)nc(N)c1Br [ETRAVIRINE]				15 nM	26 nM	9.8 nM	0.019 µM		8.3 nM	4.2 nM	4.17 nM	> 4.59 µM	0.061 µM				
Nc1ccn([C@@H]2CS[C@H](CO)O2)c(=O)n1 [LAMIVUDINE]		> 15	> 13	3200 nM	2360 nM	6110 nM	2.71 µM	2740 nM	1460 nM	6000 nM		> 87.2 µM	6.83 µM				
Cc1ccnc2c1NC(=O)c1cccnc1N2C1CC1 [NEVIRAPINE]				5050 nM	8040 nM	170 nM	9.07 µM		620 nM	150 nM		> 15 µM	> 15 µM				
Cc1cn([C@H]2C[C@H](N=[N+]=[N-])[C@@H](CO)O2)c(=O)[nH]c1=O [ZIDOVUDINE]		> 293	> 267	13 nM	8.7 nM	36 nM	0.0086 µM	19 nM	7.1 nM	26 nM		> 7.48 µM	0.028 µM				

— ChEMBL document CHEMBL4732113, “Exploiting the tolerant region I of the non-nucleoside reverse transcriptase inhibitor (NNRTI) binding pocket. Part 2: Discovery of diarylpyrimidine derivatives as potent HIV-1 NNRTIs with high Fsp values and favorable drug-like properties” (Eur J Med Chem, 2021)
